System: 454973-116-R2-J3-PDC complex spheroid viability
Test: Anticancer human tumor 454973-116-R2-J3-PDC patient-derived pancreatic carcinoma cell line growth inhibition [POLQ]
Conditions: for IC50: curve of first compound; for viability, T/C: stronger effect = lower value; active = viability on the fitted dose curve at most 10% of control; inactive = the rest
Method in brief: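 Patient-derived tumour cells were co-cultured with HUVEC and mesenchymal stem cells as multicellular spheroids at 37 °C. They were treated with POLQ inhibitors (novobiocin, ART-558, RP6685) alone or combined with other agents. Top concentrations were at or near clinical Cmax (otherwise 10 microM; SN-38 at 1 microM), decreasing in half-log steps.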

[1] = second compound 0.0316 µM, first compound 0.0316 µM
[2] = second compound 0.0316 µM, first compound 0.1 µM
[3] = second compound 0.0316 µM, first compound 0.316 µM
[4] = second compound 0.0316 µM, first compound 1 µM
[5] = second compound 0.0316 µM, first compound 3.16 µM
[6] = second compound 0.0316 µM, first compound 10 µM
[7] = second compound 0.1 µM, first compound 0.0316 µM
[8] = second compound 0.1 µM, first compound 0.1 µM
[9] = second compound 0.1 µM, first compound 0.316 µM
[10] = second compound 0.1 µM, first compound 1 µM
[11] = second compound 0.1 µM, first compound 3.16 µM
[12] = second compound 0.1 µM, first compound 10 µM
[13] = second compound 0.316 µM, first compound 0.0316 µM
[14] = second compound 0.316 µM, first compound 0.1 µM
[15] = second compound 0.316 µM, first compound 0.316 µM
[16] = second compound 0.316 µM, first compound 1 µM
[17] = second compound 0.316 µM, first compound 3.16 µM
[18] = second compound 0.316 µM, first compound 10 µM
[19] = second compound 1 µM, first compound 0.0316 µM
[20] = second compound 1 µM, first compound 0.1 µM
[21] = second compound 1 µM, first compound 0.316 µM
[22] = second compound 1 µM, first compound 1 µM
[23] = second compound 1 µM, first compound 3.16 µM
[24] = second compound 1 µM, first compound 10 µM
[25] = second compound 3.16 µM, first compound 0.0316 µM
[26] = second compound 3.16 µM, first compound 0.1 µM
[27] = second compound 3.16 µM, first compound 0.316 µM
[28] = second compound 3.16 µM, first compound 1 µM
[29] = second compound 3.16 µM, first compound 3.16 µM
[30] = second compound 3.16 µM, first compound 10 µM
[31] = second compound 10 µM, first compound 0.0316 µM
[32] = second compound 10 µM, first compound 0.1 µM
[33] = second compound 10 µM, first compound 0.316 µM
[34] = second compound 10 µM, first compound 1 µM
[35] = second compound 10 µM, first compound 3.16 µM
[36] = second compound 10 µM, first compound 10 µM
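Note: spheroids exposed to drugs for seven days before measurement.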
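Throughout, for viability, T/C: percent viability relative to DMSO vehicle control wells taken as 100%.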

CC1COCCN1c1cc(C2(O)CC3CCC(C2)O3)c2cnn(-c3ccn[nH]3)c2n1 (stereo not drawn) + COC1C(OC(N)=O)C(O)C(Oc2ccc3c(O)c(NC(=O)c4ccc(O)c(CC=C(C)C)c4)c(=O)oc3c2C)OC1(C)C
inactive: viability, T/C [1] 104% | viability, T/C [2] 74.1% | viability, T/C [3] 35.3% | viability, T/C [4] 22.1% | viability, T/C [5] 25.1% | viability, T/C [6] 15.6% | viability, T/C [7] 93.2% | viability, T/C [8] 76.9% | viability, T/C [9] 39.6% | viability, T/C [10] 24.4% | viability, T/C [11] 22.2% | viability, T/C [12] 15.8% | viability, T/C [13] 100% | viability, T/C [14] 75.6% | viability, T/C [15] 40.6% | viability, T/C [16] 18.9% | viability, T/C [17] 25.8% | viability, T/C [18] 18.4% | viability, T/C [19] 102% | viability, T/C [20] 69.6% | viability, T/C [21] 37.8% | viability, T/C [22] 18.7% | viability, T/C [23] 21.4% | viability, T/C [24] 20.1% | viability, T/C [25] 104% | viability, T/C [26] 73.5% | viability, T/C [27] 32.6% | viability, T/C [28] 19.3% | viability, T/C [29] 24.1% | viability, T/C [30] 17.6% | viability, T/C [31] 94.6% | viability, T/C [32] 68.4% | viability, T/C [33] 42.3% | viability, T/C [34] 21.5% | viability, T/C [35] 25.8% | viability, T/C [36] 15%
193 nM: IC50 (second compound 3.16 µM)
225 nM: IC50 (second compound 0.316 µM)
205 nM: IC50 (second compound 0.0316 µM)
197 nM: IC50 (second compound 1 µM)
217 nM: IC50 (second compound 10 µM)
233 nM: IC50 (second compound 0.1 µM)

Nc1ccn(C2OC(CO)C(O)C2(F)F)c(=O)n1 (stereo not drawn) + Nc1ccc(C#CCN(C(=O)Cc2ncc(C(F)(F)F)cc2C(F)(F)F)c2ccc(F)cc2)nn1
< 31.6 nM: IC50 (second compound 0.0316 µM) | IC50 (second compound 0.1 µM) | IC50 (second compound 0.316 µM) | IC50 (second compound 1 µM) | IC50 (second compound 3.16 µM) | IC50 (second compound 10 µM)
active: viability, T/C [1] 6.99% | viability, T/C [2] 8.25% | viability, T/C [3] 7.01% | viability, T/C [4] 6.38% | viability, T/C [5] 8.02% | viability, T/C [6] 5.63% | viability, T/C [7] 8.85% | viability, T/C [8] 7.54% | viability, T/C [9] 7.93% | viability, T/C [10] 6.21% | viability, T/C [11] 7.06% | viability, T/C [12] 5.26% | viability, T/C [13] 7.49% | viability, T/C [14] 6.66% | viability, T/C [15] 6.67% | viability, T/C [16] 7.27% | viability, T/C [17] 6.52% | viability, T/C [18] 5.87% | viability, T/C [19] 9.44% | viability, T/C [20] 6.21% | viability, T/C [21] 6.52% | viability, T/C [22] 6.07% | viability, T/C [23] 6.68% | viability, T/C [24] 5.65% | viability, T/C [25] 9.42% | viability, T/C [26] 6.2% | viability, T/C [27] 6.31% | viability, T/C [28] 6.8% | viability, T/C [29] 7.81% | viability, T/C [30] 5.38% | viability, T/C [31] 7.43% | viability, T/C [32] 5.82% | viability, T/C [33] 5.66% | viability, T/C [34] 6.28% | viability, T/C [35] 7.1% | viability, T/C [36] 4.05%

CCCS(=O)(=O)Nc1ccc(F)c(C(=O)c2c[nH]c3ncc(-c4ccc(Cl)cc4)cc23)c1F + COC1C(OC(N)=O)C(O)C(Oc2ccc3c(O)c(NC(=O)c4ccc(O)c(CC=C(C)C)c4)c(=O)oc3c2C)OC1(C)C
9520 nM: IC50 (second compound 0.0316 µM)
inactive: viability, T/C [1] 98.9% | viability, T/C [2] 106% | viability, T/C [3] 101% | viability, T/C [4] 114% | viability, T/C [5] 110% | viability, T/C [6] 47.5% | viability, T/C [7] 98.9% | viability, T/C [8] 118% | viability, T/C [9] 103% | viability, T/C [10] 113% | viability, T/C [11] 109% | viability, T/C [12] 54.8% | viability, T/C [13] 107% | viability, T/C [14] 114% | viability, T/C [15] 103% | viability, T/C [16] 110% | viability, T/C [17] 103% | viability, T/C [18] 57.3% | viability, T/C [19] 120% | viability, T/C [20] 107% | viability, T/C [21] 109% | viability, T/C [22] 117% | viability, T/C [23] 108% | viability, T/C [24] 57.3% | viability, T/C [25] 112% | viability, T/C [26] 109% | viability, T/C [27] 103% | viability, T/C [28] 106% | viability, T/C [29] 105% | viability, T/C [30] 62.8% | viability, T/C [31] 114% | viability, T/C [32] 104% | viability, T/C [33] 97.2% | viability, T/C [34] 106% | viability, T/C [35] 109% | viability, T/C [36] 65.5%
> 10000 nM: IC50 (second compound 0.1 µM) | IC50 (second compound 0.316 µM) | IC50 (second compound 1 µM) | IC50 (second compound 3.16 µM) | IC50 (second compound 10 µM)

O=C(c1cc(Cc2n[nH]c(=O)c3ccccc23)ccc1F)N1CCN(C(=O)C2CC2)CC1 + Cc1cccc(N(C)C(=O)C2C(O)CCN2c2nc(C)cc(C(F)(F)F)c2C#N)c1
> 10000 nM: IC50 (second compound 0.0316 µM) | IC50 (second compound 0.1 µM) | IC50 (second compound 0.316 µM) | IC50 (second compound 1 µM) | IC50 (second compound 3.16 µM) | IC50 (second compound 10 µM)
inactive: viability, T/C [1] 99.8% | viability, T/C [2] 107% | viability, T/C [3] 95.3% | viability, T/C [4] 103% | viability, T/C [5] 98% | viability, T/C [6] 61.4% | viability, T/C [7] 94.7% | viability, T/C [8] 103% | viability, T/C [9] 103% | viability, T/C [10] 99.3% | viability, T/C [11] 91.4% | viability, T/C [12] 64.8% | viability, T/C [13] 99.1% | viability, T/C [14] 110% | viability, T/C [15] 106% | viability, T/C [16] 106% | viability, T/C [17] 94.5% | viability, T/C [18] 61% | viability, T/C [19] 105% | viability, T/C [20] 96.8% | viability, T/C [21] 109% | viability, T/C [22] 102% | viability, T/C [23] 91.1% | viability, T/C [24] 62% | viability, T/C [25] 108% | viability, T/C [26] 98.5% | viability, T/C [27] 104% | viability, T/C [28] 96.2% | viability, T/C [29] 96.3% | viability, T/C [30] 62.6% | viability, T/C [31] 108% | viability, T/C [32] 105% | viability, T/C [33] 102% | viability, T/C [34] 98.4% | viability, T/C [35] 92% | viability, T/C [36] 57.7%

— PubChem BioAssay AID1963846 (Molecular Pharmacology Branch, DTP, NCI, 2024)
